From patent publication US20230405078A1, “DETECTION AND TREATMENT OF INTESTINAL FIBROSIS” (THE REGENTS OF THE UNIVERSITY OF CALIFORNIA, priority 2020, published 2023)

Columns and labels:
[1] = tested on: Primary non-IBD patient-derived colonic fibroblasts; test: TGF-β1-induced collagen expression in primary non-IBD patient-derived colonic fibroblasts; format: cell-based, human; conditions: TGF-β1 10 ng/ml; elafin 1 μg/ml 24 hours
Description: Cleveland Clinic IRB directives (IRB #17-1167). Primary non-IBD patient-derived colonic fibroblasts (H6231) were purchased from Cell Biologics. All primary colonic fibroblasts were cultured in fibroblast medium (M2267, Cell Biologics). Human colonic CCD-18Co fibroblasts (ATCC) were cultured in minimal essential medium Eagle's medium (MEM) containing 10% fetal bovine serum and 1% penicillin-streptomycin 6, 20. All fibroblasts were grown to 80% confluence and then switched to serum-free media overnight for experiments.
For activation of protease-activated receptors (PARs), fibroblasts were pretreated with 0.8% DMSO, 10 μM PAR1 agonist TRAP-6 (HY-P0078, MCE), 10 μM PAR2 agonist SLIGKV-NH2 (Protease-Activated Receptor-2, amide, HY-P0283, MCE), or 0.4 μg/ml PAR2-activating protease recombinant cathepsin S (1183-CY-010, R&D Systems) for 30 minutes. For miR205-5p activation, fibroblasts were transfected with (30 picomoles/well) either control (YM00479902) or miR205-5p miRCURY LNA mimic (YM00472340) from Qiagen via Lipofectamine 3000 transfection reagent (L3000001, ThermoFisher) in Opti-MEM (#31985062, ThermoFisher) overnight. For miR205-5p inhibition, fibroblasts were pretreated with 50nM either control (Y100199006) or miR205-5p power inhibitors (Y104101508-DDA) from Qiagen overnight. […]

SAMP1/YitFc mice = test: Spontaneous ileal fibrosis in SAMP1/YitFc mice; format: in vivo; conditions: SAMP1/YitFc model
Description: Eight-week-old male and female SAMP1/YitFc mice (#009355) and normal AKR strain control mice (#000648) were purchased from Jackson Laboratories. SAMP1/YitFc mice developed spontaneous ileal inflammation and fibrosis at 40 weeks of age.
Some groups were treated with antibiotics mixture in drinking water ad libitum from 10 to 42 weeks of age. Others received a single intraperitoneal injection (1×10^7 infectious units/mouse) of either control lentivirus or elafin-expressing lentivirus (RC203136L1V, Origene) at 40-weeks of age. Ileal tissues were collected for analysis two weeks after the lentiviral injection.
H&E and Masson Trichrome (MT) staining were performed as described previously. Microphotographs were recorded at multiple locations and scored by two investigators blindly. Intestinal injuries were scored (0-12). The severity of intestinal fibrosis was assessed by MT staining and scored (0-3). ZEB1 immunohistochemistry was performed using an anti-ZEB1 antibody (HPA027524, Sigma).
Total RNA was isolated by an RNeasy kit (#74104, Qiagen) and reverse transcribed into cDNA by a high-capacity cDNA reverse transcription kit (#4368813, ThermoFisher). […] Relative mRNA/miRNA quantification was performed by comparing test groups and control groups after normalization with endogenous control genes. The fold changes are expressed as 2^ΔΔCt. […]

## Elafin: small (6 kDa) human elastase-specific protease inhibitor and antimicrobial peptide; active form SEQ ID NO: 2 (AQEPVKGPVSTKPGSCPIILIRCAMLNPPNRCLKDTDCPGIKKCCEGSCGMACFVPQ; listed as Homo sapiens)
[1]
  TGF-β1 induced COL1A2 and ProCOL1A1 protein expression: reversed
SAMP1/YitFc mice
  overall disease activity: 7%
